In brackets after ≈: the same amount, converted by molar mass.
How the values were obtained:
[1] = test system: Dermatophyten und Schimmelpilze, Hefen; assay: Antimycotic in-vitro activity, serial dilution test, overall comparison with known compounds; format: cell-based; conditions: compared with known compounds (A),(B),(C) and (D)
Procedure: (§1) Die in-vitro-Prüfungen wurden im Reihenverdünnungstest mit Keiminokula von durchschnittlich 5 x 10^4 Keimen/ml Substrat durchgeführt. Als Nährmedium dienten • a) für Dermatophyten und Schimmelpilze: Sabourand's milieu d'epreuve • b) für Hefen: Fleischextrakt-Traubenzucker-Bouillon.
(§2) Die Bebrütungstemperatur betrug 20°C, die Bebrütungsdauer lag bei 24 bis 96 Stunden bei Hefen und 96 Stunden bei Dermatophyten und Schimmelpilzen.

Trichophyton mentagr. = assay: Antimycotic in-vitro activity, serial dilution test (MIC); format: cell-based, Trichophyton mentagrophytes; conditions: Sabouraud medium, 20°C, 96 hours, inoculum 5 x 10^4 germs/ml; for MIC: Trichophyton, read-out: MHK-Werte in γ/ml Nährmedium, Trichophyton mentagr.
Procedure: as §1, §2

Candida-Zellen = assay: Antimycotic in-vivo activity (oral) in mouse candidosis; parameters: species or system Mäuse vom Typ SPF-CF1; key: +++++: sehr gute Wirkung = 90 % Ueberlebende am 6.Tag p.i.; ++++: gute Wirkung = 80 % Ueberlebende am 6.Tag p.i.; +++: Wirkung = 60 % Ueberlebende am 6.Tag p.i.; ++: schwache Wirkung = 40 % Ueberlebende am 6.Tag p.i.; +: Spur Wirkung; k.W.: keine Wirkung
Procedure: Mäuse vom Typ SPF-CF1 wurden intravenös mit 1 - 2 x 10^6 logarithmisch wachsenden Candida-Zellen, die in physiologischer Kochsalzlösung suspendiert werden, infiziert. Eine Stunde vor und sieben Stunden nach der Infektion werden die Tiere mit jeweils 50 - 100 mg/kg Körpergewicht der Präparate oral behandelt.
Uhbehandelte Tiere starben 3 bis 6 Tage post infektionem. Die Ueberlebensrate am 6.Tag post infektionem betrug bei uhbehandelten Kontrolltieren etwa 5 %.
• +++++ = sehr gute Wirkung = 90 % Ueberlebende am 6.Tag p.i. • ++++ = gute Wirkung = 80 % Ueberlebende am 6.Tag p.i. • +++ = Wirkung = 60 % Ueberlebende am 6.Tag p.i. • ++ = schwache Wirkung = 40 % Ueberlebende am 6.Tag p.i. • + = Spur Wirkung = k.W. = keine Wirkung

Aspergillus fumig. = assay: Antimycotic in-vitro activity, serial dilution test (MIC); format: cell-based, Aspergillus fumigatus; conditions: Sabouraud medium, 20°C, inoculum 5 x 10^4 germs/ml; for MIC: Aspergillus, 96 h, read-out: MHK-Werte in γ/ml Nährmedium, Aspergillus fumig.
Procedure: as §1, §2

Torulopsis glabrata = assay: as above; format: cell-based; conditions: meat extract-glucose broth, 20°C, 24 to 96 hours, inoculum 5 x 10^4 germs/ml; for MIC: Nakaseomyces glabratus, read-out: MHK-Werte in γ/ml Nährmedium, Torulopsis glabrata
Procedure: as §1, §2

Microsporum canis = assay: as above; format: cell-based; conditions: Sabouraud medium, 20°C, inoculum 5 x 10^4 germs/ml; for MHK-Werte in γ/ml Nährmedium, Microsporum canis: 96 hours; for MIC: Microsporum canis, 96 h, read-out: MHK-Werte in γ/ml Nährmedium, Microsporum canis
Procedure: as §1, §2

Candida albicans = assay: as above; format: cell-based; conditions: meat extract-glucose broth, 20°C, 24 to 96 hours, inoculum 5 x 10^4 germs/ml; for MIC: Candida albicans, read-out: MHK-Werte in γ/ml Nährmedium, Candida albicans
Procedure: as §1, §2

[2] = mice infected i.v. with 1 - 2 x 10^6 Candida cells, oral 50 - 100 mg/kg one hour before and seven hours after infection, survivors on day 6 p.i.
[3] = mouse candidosis, oral, compared with known compounds (A), (B), (C) and (D)

Compound | antimykotische Wirkung [1] | MIC (Trichophyton mentagr.) | Wirkung (Candida-Zellen; [2]) | Wirkung (Candida-Zellen; [3]) | MIC (Aspergillus fumig.) | MHK-Werte in γ/ml Nährmedium, Torulopsis glabrata (Torulopsis glabrata) | MHK-Werte in γ/ml Nährmedium, Microsporum canis (Microsporum canis) | MIC (Candida albicans) | MIC (Torulopsis glabrata) | MIC (Microsporum canis) | MHK-Werte in γ/ml Nährmedium, Trichophyton mentagr. (Trichophyton mentagr.) | MHK-Werte in γ/ml Nährmedium, Aspergillus fumig. (Aspergillus fumig.; 96 hours) | MHK-Werte in γ/ml Nährmedium, Candida albicans (Candida albicans)
CCCCC(C(O)c1ccc(Oc2ccc(Cl)cc2)cc1)n1cncn1 (single isomer, unassigned) [Beispiel 33] | bessere antimykotische Wirkung | < 1 µg/mL | +++++ (sehr gute Wirkung = 90 % Ueberlebende am 6.Tag p.i.) | bessere Wirkung | 64 µg/mL (≈ 172 µM) | <1 µg/mL | 8 µg/mL | < 1 µg/mL | – | – | – | – | –
CCCC(C(O)c1ccc(Oc2ccc(Cl)cc2Cl)cc1)n1cncn1 (centres unmarked) [Beispiel 40] | bessere antimykotische Wirkung | < 1 µg/mL | – | – | > 64 µg/mL | – | – | < 1 µg/mL | < 1 µg/mL | 8 µg/mL (≈ 20.4 µM) | – | – | –
CC(C(O)c1ccc(Oc2ccc(Cl)cc2)cc1)n1ccnc1 (centres unmarked) [Beispiel 71] | bessere antimykotische Wirkung | 8 µg/mL (≈ 24.3 µM) | +++ (Wirkung = 60 % Ueberlebende am 6.Tag p.i.) | bessere Wirkung | 16 µg/mL (≈ 48.7 µM) | – | – | < 1 µg/mL | 2 µg/mL (≈ 6.08 µM) | – | – | – | –
CC(C(O)c1ccc(Oc2ccc(Cl)cc2Cl)cc1)n1cncn1 (centres unmarked) [Beispiel 41] | bessere antimykotische Wirkung | 4 µg/mL (≈ 11 µM) | – | – | 32 µg/mL (≈ 87.9 µM) | – | – | < 1 µg/mL | 8 µg/mL (≈ 22 µM) | 16 µg/mL (≈ 43.9 µM) | – | – | –
COCCC(C(O)c1ccc(Oc2ccc(Cl)cc2)cc1)n1cncn1 (centres unmarked) [Beispiel 39] | bessere antimykotische Wirkung | 4 µg/mL (≈ 10.7 µM) | – | – | 16 µg/mL (≈ 42.8 µM) | – | – | < 1 µg/mL | 4 µg/mL (≈ 10.7 µM) | 16 µg/mL (≈ 42.8 µM) | – | – | –
CCCC(C(O)c1ccc(Oc2ccc(Cl)cc2)cc1)n1ccnc1 (centres unmarked) [Beispiel 74] | bessere antimykotische Wirkung | < 1 µg/mL | – | – | 64 µg/mL (≈ 179 µM) | – | – | < 1 µg/mL | < 1 µg/mL | 8 µg/mL (≈ 22.4 µM) | – | – | –
CCCC(C(=O)c1ccc(Oc2ccc(Cl)cc2)cc1)n1ccnc1 (centres unmarked) [Beispiel 25] | bessere antimykotische Wirkung | < 1 µg/mL | – | – | < 1 µg/mL | – | – | < 1 µg/mL | < 1 µg/mL | 8 µg/mL (≈ 22.5 µM) | – | – | –
CC(C)C(C(=O)c1ccc(Oc2ccc(Cl)cc2)cc1)n1cncn1 (centres unmarked) [Beispiel 13] | bessere antimykotische Wirkung | 4 µg/mL (≈ 11.2 µM) | – | – | 8 µg/mL (≈ 22.5 µM) | – | – | 64 µg/mL (≈ 180 µM) | – | 8 µg/mL (≈ 22.5 µM) | – | – | –
CCCC(C(O)c1ccc(Oc2ccccc2)cc1)n1ccnc1 (centres unmarked) [Beispiel 68] | bessere antimykotische Wirkung | 4 µg/mL (≈ 12.4 µM) | – | – | 32 µg/mL (≈ 99.3 µM) | – | – | < 1 µg/mL | 32 µg/mL (≈ 99.3 µM) | 16 µg/mL (≈ 49.6 µM) | – | – | –
CC(C(=O)c1ccccc1)n1cncn1 (centres unmarked) [(A), reference compound] | – | > 64 µg/mL | k.W. | – | – | – | – | > 64 µg/mL | – | – | – | – | –
CC=CCC(C(O)c1ccc(Oc2ccc(Cl)cc2)cc1)n1cncn1 (centres unmarked) [Beispiel 37] | bessere antimykotische Wirkung | 4 µg/mL (≈ 10.8 µM) | – | – | 32 µg/mL (≈ 86.5 µM) | – | – | < 1 µg/mL | 2 µg/mL (≈ 5.41 µM) | 4 µg/mL (≈ 10.8 µM) | – | – | –
CC(C)C(C(=O)c1ccc(Oc2ccc(Cl)cc2)cc1)n1ccnc1 (centres unmarked) [Beispiel 28] | bessere antimykotische Wirkung | < 1 µg/mL | – | – | < 1 µg/mL | – | – | < 1 µg/mL | 2 µg/mL (≈ 5.64 µM) | 2 µg/mL (≈ 5.64 µM) | – | – | –
CC(C(=O)c1ccc(Oc2ccc(Cl)cc2)cc1)n1cncn1 (centres unmarked) [Beispiel 9] | bessere antimykotische Wirkung | 2 µg/mL (≈ 6.1 µM) | +++ (Wirkung = 60 % Ueberlebende am 6.Tag p.i.) | bessere Wirkung | 8 µg/mL (≈ 24.4 µM) | – | – | 8 µg/mL (≈ 24.4 µM) | 16 µg/mL (≈ 48.8 µM) | 4 µg/mL (≈ 12.2 µM) | – | – | –
CC(n1cncn1)C(C)(O)c1ccc(Oc2ccc(Cl)cc2)cc1 (centres unmarked) [Beispiel 44] | bessere antimykotische Wirkung | < 1 µg/mL | – | – | > 64 µg/mL | – | – | < 1 µg/mL | > 64 µg/mL | 32 µg/mL (≈ 93.1 µM) | – | – | –
OC(Cn1cncn1)c1ccc(Oc2ccc(Cl)cc2Cl)cc1 (centres unmarked) [Beispiel 48] | bessere antimykotische Wirkung | < 1 µg/mL | – | – | 16 µg/mL (≈ 45.7 µM) | – | – | < 1 µg/mL | 2 µg/mL (≈ 5.71 µM) | 4 µg/mL (≈ 11.4 µM) | – | – | –
CC(C(O)c1ccc(Cl)cc1)n1cncn1 (centres unmarked) [(C), reference compound] | – | > 64 µg/mL | k.W. | – | – | – | – | > 64 µg/mL | – | – | – | – | –
OC(Cn1cncn1)c1ccc(Oc2ccc(Cl)cc2)cc1 (centres unmarked) [Beispiel 49] | bessere antimykotische Wirkung | < 1 µg/mL | – | – | 16 µg/mL (≈ 50.7 µM) | – | – | < 1 µg/mL | 16 µg/mL (≈ 50.7 µM) | 4 µg/mL (≈ 12.7 µM) | – | – | –
CCCCCCCC(C(O)c1ccc(Oc2ccc(Cl)cc2)cc1)n1cncn1 (centres unmarked) [Beispiel 36] | bessere antimykotische Wirkung | < 1 µg/mL | – | – | 64 µg/mL (≈ 155 µM) | – | – | 4 µg/mL (≈ 9.66 µM) | 16 µg/mL (≈ 38.7 µM) | 32 µg/mL (≈ 77.3 µM) | – | – | –
CCCCC(C(=O)c1ccc(Oc2ccc(Cl)cc2)cc1)n1ccnc1 (centres unmarked) [Beispiel 27] | bessere antimykotische Wirkung | < 1 µg/mL | – | – | < 1 µg/mL | – | – | < 1 µg/mL | < 1 µg/mL | < 1 µg/mL | – | – | –
CCCC=CC(C(O)c1ccc(Oc2ccc(Cl)cc2)cc1)n1cncn1 (centres unmarked) [Beispiel 38] | bessere antimykotische Wirkung | < 1 µg/mL | – | – | 32 µg/mL (≈ 83.4 µM) | – | – | 8 µg/mL (≈ 20.8 µM) | 64 µg/mL (≈ 167 µM) | 8 µg/mL (≈ 20.8 µM) | – | – | –
CCC(C(=O)c1ccc(Oc2ccc(Cl)cc2)cc1)n1cncn1 (centres unmarked) [Beispiel 7] | bessere antimykotische Wirkung | 4 µg/mL (≈ 11.7 µM) | – | – | 32 µg/mL (≈ 93.6 µM) | – | – | 16 µg/mL (≈ 46.8 µM) | 64 µg/mL (≈ 187 µM) | 2 µg/mL (≈ 5.85 µM) | – | – | –
OC(Cn1cncn1)c1ccc(-c2ccc(Cl)cc2)cc1 (centres unmarked) [(D), reference compound] | – | 4 µg/mL (≈ 13.3 µM) | k.W. | – | > 64 µg/mL | – | – | > 64 µg/mL | – | > 64 µg/mL | – | – | –
CCC(C(O)c1ccc(Oc2ccc(Cl)cc2)cc1)n1ccnc1 (centres unmarked) [Beispiel 70] | bessere antimykotische Wirkung | 2 µg/mL (≈ 5.83 µM) | + | bessere Wirkung | 16 µg/mL (≈ 46.7 µM) | – | – | < 1 µg/mL | < 1 µg/mL | 8 µg/mL (≈ 23.3 µM) | – | – | –
O=C(Cn1cncn1)c1ccc(-c2ccccc2)cc1 [(B), reference compound] | – | 4 µg/mL (≈ 15.2 µM) | k.W. | – | > 64 µg/mL | – | – | > 64 µg/mL | – | > 64 µg/mL | – | – | –
CC(C)C(C(O)c1ccc(Oc2ccc(Cl)cc2)cc1)n1ccnc1 (centres unmarked) [Beispiel 73] | bessere antimykotische Wirkung | 4 µg/mL (≈ 11.2 µM) | – | – | 64 µg/mL (≈ 179 µM) | – | – | 4 µg/mL (≈ 11.2 µM) | 2 µg/mL (≈ 5.6 µM) | 16 µg/mL (≈ 44.8 µM) | – | – | –
CC(C(=O)c1ccc(Oc2ccc(Cl)cc2)cc1)n1ccnc1 (centres unmarked) [Beispiel 26] | bessere antimykotische Wirkung | 8 µg/mL (≈ 24.5 µM) | + | bessere Wirkung | 16 µg/mL (≈ 49 µM) | – | – | 4 µg/mL (≈ 12.2 µM) | 16 µg/mL (≈ 49 µM) | – | – | – | –
CCCCC(C(O)c1ccc(Oc2ccc(Cl)cc2)cc1)n1cncn1 (single isomer, unassigned) [Beispiel 34] | bessere antimykotische Wirkung | – | – | – | – | >64 µg/mL | 32 µg/mL | – | – | – | <1 µg/mL | 32 µg/mL | <1 µg/mL
CCCCC(C(O)c1ccc(Oc2ccc(Cl)cc2)cc1)n1ccnc1 (centres unmarked) [Beispiel 72] | bessere antimykotische Wirkung | < 1 µg/mL | – | – | 32 µg/mL (≈ 86.3 µM) | – | – | < 1 µg/mL | 2 µg/mL (≈ 5.39 µM) | 8 µg/mL (≈ 21.6 µM) | – | – | –
